# Source: US10377718B2, “Apelin receptor (APJ) agonists and uses thereof” (Research Triangle Institute, priority 2014, dated 2019)
# Biological target: T1, apelin receptor (APJ) (Homo sapiens, UniProt P35414)
# T1 sequence (P35414 1-380): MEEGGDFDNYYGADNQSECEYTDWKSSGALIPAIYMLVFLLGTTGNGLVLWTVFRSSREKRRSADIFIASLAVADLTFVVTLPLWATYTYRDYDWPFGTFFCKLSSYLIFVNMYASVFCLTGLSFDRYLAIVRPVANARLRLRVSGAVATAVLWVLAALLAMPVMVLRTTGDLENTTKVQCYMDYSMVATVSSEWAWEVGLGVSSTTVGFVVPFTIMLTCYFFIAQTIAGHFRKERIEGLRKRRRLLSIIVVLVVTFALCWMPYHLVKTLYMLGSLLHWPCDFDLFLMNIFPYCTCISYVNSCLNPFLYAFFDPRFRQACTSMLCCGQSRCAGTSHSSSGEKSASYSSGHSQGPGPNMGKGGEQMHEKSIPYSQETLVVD
# Assay: in vitro apelin agonist activity (methods of Giddings et al., Apelin-13 as positive control)
# Format: cell-based
# Conditions: apelin agonist activity, Giddings et al. method; read-out: agonist activity (EC50)
# From the text: The compounds above were studied for their in vitro activity as apelin agonists using the methods described by Giddings et al. Giddings et al., 2010 Int J High Thro Screen. 1:39-47, the contents of which are hereby incorporated by reference in its entirety.
compound,measurement,value
CCC(O)CNC(=O)C[C@H](CCN1CCCCC1)NC(=O)c1cc(-c2c(OC)cccc2OC)n(CC(C)C)n1 (stereo partly drawn) [compound 245],EC50,< 10 µM
COc1cccc(OC)c1-c1cc(C(=O)N[C@@H](CCN2CCCCC2)CC(=O)NC2CCC2)nn1CC(C)C [compound 247],EC50,< 10 µM
COCCNC(=O)C[C@H](CCN1CCCCC1)NC(=O)c1cc(-c2c(OC)cccc2OC)n(CC(C)C)n1 [compound 249],EC50,< 10 µM
COc1cccc(OC)c1-c1cc(C(=O)N[C@@H](CCN2CCCCC2)CC(=O)O)nn1CC(C)C [compound 251],EC50,< 10 µM
COCCN(C)C(=O)[C@H](CCC1CCCCC1)NC(=O)c1cc(-c2c(OC)cccc2OC)n(CC(C)C)n1 [compound 256],EC50,< 10 µM
COc1cccc(OC)c1-c1cc(C(=O)NC(CC(=O)O)C2CCCCC2)nn1-c1ccc(F)cc1 (stereo not drawn) [compound 257],EC50,< 10 µM
COC(=O)CNC(=O)CC(NC(=O)c1cc(-c2c(OC)cccc2OC)n(-c2ccc(F)cc2)n1)C1CCCCC1 (stereo not drawn) [compound 258],EC50,< 10 µM
C=C[C@@H](CC(=O)NC1CCC1)NC(=O)c1cc(-c2c(OC)cccc2OC)n(C2CCCC2)n1 [compound 263],EC50,< 10 µM
COc1cccc(OC)c1-c1cc(C(=O)N[C@@H](CCC2CCCCC2)Cc2nnn[nH]2)nn1CC(C)C [compound 265],EC50,< 10 µM
